The source of these data is patent US7132554B2, “Therapeutic synergy of anti-cancer compounds” (Bristol-Myers Squibb Company, priority 2004, dated 2006).

For data set [1], the system named is Human GEO colon carcinoma xenografts. Nature of the data set: Antitumor testing versus s.c. GEO colon carcinoma xenografts in nude mice. The data set is classed as in vivo. On the set-up: key: Treatment resulting in more than one death is described as “TOX” (i.e., toxic). The note with it: q3dx6 from Day 11. On the procedure: (§1) Compounds. The oral taxane (Ia) was synthesized by Bristol-Myers Squibb (BMS) chemists. The compound was dissolved initially in equal portions of Cremophor EL and ethanol, followed by aqueous dilution to yield final ethanol and Cremophor EL concentrations of 10%.
(§2) Animals. Athymic (“nude”) mice, 5–6 weeks of age, purchased from Harlan Sprague Dawley (Indianapolis, Ind.), were quarantined for ˜2 weeks before their use for tumor propagation and drug efficacy testing. They were fed food and water ad libitum. All studies involving these animals were conducted in accordance with NIH (Bethesda, Md.) and Bristol Myers-Squibb animal care and use guidelines.
(§3) Tumors. Human L2987 lung and GEO colon carcinomas were maintained in nude mice by serial s.c. passage. All efficacy testing involved tumors implanted s.c. in nude mice.
(§4) Antitumor Testing. A detailed description of the methods used to assess antitumor effects has been provided previously in Rose, W. C., Fairchild, C., and Lee, F. Y. F. Preclinical antitumor activity of two novel taxanes. Cancer Chemother. Pharmacol. 47: 97–105, 2001. […] Delays in tumor growth are also converted to log cell kill (LCK) values by methods described in the same article. Statistical evaluations of data were performed using Gehan's generalized Wilcoxon test for comparisons of time to reach tumor target size. Statistical significance was declared at P<0.05. Group sizes typically consisted of eight mice. Activity was defined as ≧1 LCK.
(§5) Definitions of MTD and OD have been published previously in the above-noted article. Therapeutic results were reported at the OD, i.e., that yielding the best effect without exceeding the MTD. Therapeutic synergy represents a therapeutic effect achieved with a tolerated regimen of a combination treatment that exceeds the optimal effect achieved at any tolerated dose of monotherapy associated with the same drugs used in the combination. Cured mice are defined as those whose tumors are ≦35 mg when assessed 10 tumor volume doubling times (based on control tumor growth between 500 mg and 1 g) post-termination of treatment. A regimen was described as “toxic” if more than one mouse died during or within 10 days following the final drug treatment, or anytime after the initiation of drug therapy whose tumor size at the time of death was below 1 g.

For data set [2], the system named is Human L2987 lung carcinoma xenografts. Nature of the data set: Antitumor testing versus s.c. L2987 lung carcinoma xenografts in nude mice. The data set is classed as in vivo. The note with it: for T-C: tumor target 1.0 g. As for the experimental part: as §1, §2, §3, §4, §5
Data set [3] in a line: Phase I clinical trial, weekly schedule of administration. The data set is classed as in vivo, human. An excerpt:
The preclinical activity of Compound Ia was observed using several different schedules, with an intermittent administration regimen being optimal in one carefully examined tumor model. […] Heavily pretreated patients, typically having received two or three prior chemo/radiotherapies, have responded to weekly Compound Ia. All but one of the several responding patients had NSCLC, and all but one of these had previously received either a parenteral taxane or a small molecule anti-EGFR compound, gefitinib, or both. The purpose of our current investigations was to evaluate this oral taxane versus preclinical human tumor models using a multiple administration treatment regimen, in combination with an inhibitor of EGFR.

Data set [4] can be described thus: Tolerability (body weight change, deaths, MTD) in nude mice bearing GEO tumors. The data set is classed as in vivo. On the procedure:
as §1, §2, §5

Data set [5] is described as follows: Tolerability (body weight change, deaths, MTD) in nude mice bearing L2987 tumors. The data set is classed as in vivo. As for the experimental part: as §1, §2, §5
In data set [6] the test system is Human GEO colon carcinoma xenografts. The note with it: known from earlier work; cited from earlier work.
The mark [7] stands for this setting: confirmatory study, q3dx6 from Day 20, Compound Ia 40 mg/kg/adm p.o.
[8] abbreviates: confirmatory study, q3dx6 from Day 20, Compound Ia 60 mg/kg/adm p.o.
The mark [9] stands for this setting: pilot study, q3dx4 from Day 22, Compound Ia 40 mg/kg/adm p.o.
Setting [10] is: pilot study, q3dx4 from Day 22, Compound Ia 60 mg/kg/adm p.o.

Regarding `COC(=O)OC12COC1CC(O)C1(C)C(=O)C(OC(C)=O)C3=C(C)C(OC(=O)C(O)C(NC(=O)OC(C)(C)C)C(C)(C)C)CC(O)(C(OC(=O)c4ccccc4)C21)C3(C)C` (centres unmarked) [Compound Ia], the “LCK (log cell kill)” value in data set [1] (Compound Ia 40 mg/kg/adm p.o.) is recorded as 0.3; in data set [1] (Compound Ia 60 mg/kg/adm p.o.), 0.7; in data set [1] (Compound Ia 90 mg/kg/adm p.o.), “TOX”; in data set [2] (setting [7]), 0.5; in data set [2] (setting [8]) it was 1.0; in data set [2] (setting [9]), 0.2. Further, in data set [2] (setting [10]), the “LCK (log cell kill)” value is on record as 0.6. Further, the T-C is reported as 4.0 days in data set [1] (Compound Ia 40 mg/kg/adm p.o., tumor target 1.0 g); 10.0 days in data set [1] (Compound Ia 60 mg/kg/adm p.o., tumor target 1.0 g); “TOX” in data set [1] (Compound Ia 90 mg/kg/adm p.o.); 14.5 days in data set [2] (setting [7]); 28.0 days in data set [2] (setting [8]); 5.5 days in data set [2] (setting [9]). Further, the T-C in data set [2] (setting [10]) worked out at 14.0 days. In addition, the Clinical toxicity result in data set [3] is “manageable toxicity”. Further, the MTD in data set [4] (p.o., q3dx6) is 60 mg/kg/adm. Also, the “Average body weight change” value in data set [4] (q3dx6 from Day 11, Compound Ia 40 mg/kg/adm p.o.) is -2.6 g; in data set [4] (q3dx6 from Day 11, Compound Ia 60 mg/kg/adm p.o.) it was -1.8 g; in data set [5] (setting [7]), 1.5 g; in data set [5] (setting [8]) it was -0.9 g; in data set [5] (setting [9]), 0.7 g; in data set [5] (setting [10]), 1.0 g. The dead/total result in data set [4] (q3dx6 from Day 11, Compound Ia 90 mg/kg/adm p.o.) is given as “(3/8)”. Also, the “MTD, cumulative exposure” value in data set [5] (confirmatory study, 60 mg/kg/adm p.o. q3dx6, tolerated with minimal body weight loss) came out at 360 mg/kg. Moreover, in data set [5] (p.o., established using a schedule similar to q3dx4), the “historical MTD, cumulative exposure” value is listed as “approximately 300 mg/kg”.
As for `COc1cc2ncnc(Nc3ccc(F)c(Cl)c3)c2cc1OCCCN1CCOCC1` [gefitinib], the “Responsiveness of the GEO tumor model” value in data set [6] is reported as “responsive”.
